This note sets out measurements from ChEMBL document CHEMBL1201862, “PubChem BioAssay data set” (2004).

Assay [1] deals with HEK293. Nature of the assay: inhibitors of LMP1-driven NF-kB reporter, dose response, cell-based, HEK293, luciferase, cherry-pick (AID 588343). The format is functional. The conditions noted are these: Homo sapiens.
The target in assay [2] is T1, Endoribonuclease toxin MazF (Escherichia coli K-12, UniProt P0AE70).
T1 sequence (P0AE70 whole entry): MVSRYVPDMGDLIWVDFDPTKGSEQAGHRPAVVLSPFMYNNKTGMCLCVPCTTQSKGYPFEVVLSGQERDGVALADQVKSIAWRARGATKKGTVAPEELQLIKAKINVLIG
Nature of the assay: fluorescent RNA oligo signal without MazF, dose response, counter-screen for MazEF activator project, biochemical, fluorescence, single-stranded RNase substrate (AID 588502). In kind it is functional.

Assay [3] deals with T1, Endoribonuclease toxin MazF. Description: MazF toxin RNase activators, dose response, biochemical, fluorescence, single-stranded RNA substrate, uHTS hits (AID 588481). In kind it is functional.
Assay [4] addresses Genome polyprotein (dengue virus type 2, UniProt P29990). Description: Dengue-2 NS5 methyltransferase inhibitors, primary screen, biochemical, confirmation dose response (AID 588689). In kind it is functional.
The target in assay [5] is T2, Caspase-6 (Homo sapiens, UniProt P55212).
T2 sequence (P55212 whole entry): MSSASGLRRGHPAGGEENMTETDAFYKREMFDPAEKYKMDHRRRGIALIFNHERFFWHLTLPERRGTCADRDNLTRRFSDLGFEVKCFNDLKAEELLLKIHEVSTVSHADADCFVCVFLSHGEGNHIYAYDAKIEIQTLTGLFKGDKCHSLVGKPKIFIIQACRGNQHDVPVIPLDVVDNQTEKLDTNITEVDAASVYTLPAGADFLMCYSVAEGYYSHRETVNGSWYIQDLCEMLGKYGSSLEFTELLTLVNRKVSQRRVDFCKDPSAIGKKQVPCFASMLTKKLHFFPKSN
Description: human caspase-6 inhibitors, dose response, biochemical, VEID-R110 fluorescence, cherry-pick (AID 720632).

Assay [6] addresses T3, Rac GTPase-activating protein 1 (Homo sapiens, UniProt Q9H0H5).
T3 sequence (Q9H0H5 whole entry): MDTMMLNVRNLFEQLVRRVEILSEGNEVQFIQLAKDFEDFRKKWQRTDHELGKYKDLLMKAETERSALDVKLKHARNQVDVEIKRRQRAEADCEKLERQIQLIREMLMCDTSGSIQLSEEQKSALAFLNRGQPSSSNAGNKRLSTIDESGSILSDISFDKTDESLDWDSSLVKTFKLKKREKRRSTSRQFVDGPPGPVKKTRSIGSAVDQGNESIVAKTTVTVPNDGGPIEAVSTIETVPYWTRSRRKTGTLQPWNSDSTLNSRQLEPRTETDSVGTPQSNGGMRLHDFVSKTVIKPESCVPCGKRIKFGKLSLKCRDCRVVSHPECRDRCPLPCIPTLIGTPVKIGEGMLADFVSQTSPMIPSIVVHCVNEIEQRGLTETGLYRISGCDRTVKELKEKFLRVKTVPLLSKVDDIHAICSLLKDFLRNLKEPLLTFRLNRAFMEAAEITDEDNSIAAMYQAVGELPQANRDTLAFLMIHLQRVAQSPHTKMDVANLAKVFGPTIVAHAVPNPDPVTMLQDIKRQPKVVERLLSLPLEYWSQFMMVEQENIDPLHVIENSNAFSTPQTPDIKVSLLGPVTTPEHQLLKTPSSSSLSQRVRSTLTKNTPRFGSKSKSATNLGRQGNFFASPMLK
Nature of the assay: MgcRacGAP GTPase-activating activity inhibitors, confirmation, biochemical, ADP Hunter fluorescence, primary and confirmatory (AID 624330). The format is functional.

The target in assay [7] is Paired box protein Pax-8 (Homo sapiens, UniProt Q06710). Description: inhibitors of PAX8-driven TPO luciferase reporter, dose response, RMG-I cells, cherry-pick (AID 687027).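 Note: luciferase reporter driven by Pax8 target thyroperoxidase promoter measured by SteadyGlo luminescence.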 In kind it is functional, cell-based. In general terms: A reporter such as luciferase makes a cellular process visible.
Assay [8] concerns the target T4, Replicative DNA helicase DnaB (Mycobacterium tuberculosis, UniProt P9WMR3).
T4 sequence (P9WMR3 whole entry): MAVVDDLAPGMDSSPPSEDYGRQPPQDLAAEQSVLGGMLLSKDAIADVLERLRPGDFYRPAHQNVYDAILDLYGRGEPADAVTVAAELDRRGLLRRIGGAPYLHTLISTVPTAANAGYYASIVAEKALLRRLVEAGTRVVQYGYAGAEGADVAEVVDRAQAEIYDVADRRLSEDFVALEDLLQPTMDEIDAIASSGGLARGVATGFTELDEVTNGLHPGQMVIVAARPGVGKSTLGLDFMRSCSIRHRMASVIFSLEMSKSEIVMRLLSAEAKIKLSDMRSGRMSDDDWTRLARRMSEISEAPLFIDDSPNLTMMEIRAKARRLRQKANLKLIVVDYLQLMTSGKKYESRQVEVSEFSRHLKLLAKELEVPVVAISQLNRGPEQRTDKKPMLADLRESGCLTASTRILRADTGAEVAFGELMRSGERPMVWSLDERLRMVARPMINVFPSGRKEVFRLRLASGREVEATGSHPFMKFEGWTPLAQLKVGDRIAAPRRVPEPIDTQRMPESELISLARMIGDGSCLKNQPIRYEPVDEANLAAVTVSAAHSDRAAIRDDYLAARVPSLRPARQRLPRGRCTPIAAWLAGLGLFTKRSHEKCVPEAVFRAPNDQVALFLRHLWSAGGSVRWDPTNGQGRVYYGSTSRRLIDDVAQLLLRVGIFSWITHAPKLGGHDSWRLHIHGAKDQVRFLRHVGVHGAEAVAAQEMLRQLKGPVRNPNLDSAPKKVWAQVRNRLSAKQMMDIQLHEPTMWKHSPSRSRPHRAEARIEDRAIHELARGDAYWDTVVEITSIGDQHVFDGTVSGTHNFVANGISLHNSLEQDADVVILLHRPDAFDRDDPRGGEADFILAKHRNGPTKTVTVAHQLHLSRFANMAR
Nature of the assay: DnaB intein splicing inhibitors, dose response, biochemical, cell-free fluorescence (AID 449749). The format is functional.

In assay [9] the target is T5, Protein RecA (Mycobacterium tuberculosis, UniProt P9WHJ3).
T5 sequence (P9WHJ3 whole entry): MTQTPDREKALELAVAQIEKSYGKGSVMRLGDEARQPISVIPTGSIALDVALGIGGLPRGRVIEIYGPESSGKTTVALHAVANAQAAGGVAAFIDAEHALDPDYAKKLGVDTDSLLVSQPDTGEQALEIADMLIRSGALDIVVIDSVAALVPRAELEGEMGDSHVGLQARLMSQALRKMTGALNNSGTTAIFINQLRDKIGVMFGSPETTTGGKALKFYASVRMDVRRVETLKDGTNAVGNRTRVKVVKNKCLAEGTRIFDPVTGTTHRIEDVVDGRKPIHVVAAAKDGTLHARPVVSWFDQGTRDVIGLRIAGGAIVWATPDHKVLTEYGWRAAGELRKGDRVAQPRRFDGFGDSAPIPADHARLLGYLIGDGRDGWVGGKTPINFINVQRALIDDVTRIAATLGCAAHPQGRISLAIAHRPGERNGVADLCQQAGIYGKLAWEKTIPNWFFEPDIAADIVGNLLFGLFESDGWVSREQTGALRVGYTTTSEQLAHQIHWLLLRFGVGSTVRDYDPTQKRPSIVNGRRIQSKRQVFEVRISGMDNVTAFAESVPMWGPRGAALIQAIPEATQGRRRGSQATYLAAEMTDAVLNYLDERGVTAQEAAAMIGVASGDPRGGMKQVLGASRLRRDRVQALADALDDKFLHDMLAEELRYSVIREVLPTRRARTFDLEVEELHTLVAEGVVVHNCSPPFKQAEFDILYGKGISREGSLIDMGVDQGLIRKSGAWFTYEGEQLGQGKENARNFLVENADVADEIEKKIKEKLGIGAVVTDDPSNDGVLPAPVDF
Nature of the assay: Fluorescence Cell-Free Homogeneous Dose Retest to Identify Inhibitors of RecA-Intein Splicing Activity. [Related pubchem assays (depositor defined):AID2097, AID2223, AID489010, AID492950]. In kind it is functional.

Assay [10] is described as follows: inhibitors of intracellular T. cruzi replication, confirmation, NIH3T3 host cells, beta-gal luminescence (AID 2044).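 Note: intracellular parasites grown in NIH/3T3 mouse fibroblasts as host cells; luminescent beta-galactosidase reporter signal from transgenic T. cruzi replicating inside host cells; inhibitors lower the luminescence signal.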 In kind it is functional, cell-based.
The target in assay [11] is T6, Apoptotic protease-activating factor 1 (Homo sapiens, UniProt O14727).
T6 sequence (O14727 whole entry): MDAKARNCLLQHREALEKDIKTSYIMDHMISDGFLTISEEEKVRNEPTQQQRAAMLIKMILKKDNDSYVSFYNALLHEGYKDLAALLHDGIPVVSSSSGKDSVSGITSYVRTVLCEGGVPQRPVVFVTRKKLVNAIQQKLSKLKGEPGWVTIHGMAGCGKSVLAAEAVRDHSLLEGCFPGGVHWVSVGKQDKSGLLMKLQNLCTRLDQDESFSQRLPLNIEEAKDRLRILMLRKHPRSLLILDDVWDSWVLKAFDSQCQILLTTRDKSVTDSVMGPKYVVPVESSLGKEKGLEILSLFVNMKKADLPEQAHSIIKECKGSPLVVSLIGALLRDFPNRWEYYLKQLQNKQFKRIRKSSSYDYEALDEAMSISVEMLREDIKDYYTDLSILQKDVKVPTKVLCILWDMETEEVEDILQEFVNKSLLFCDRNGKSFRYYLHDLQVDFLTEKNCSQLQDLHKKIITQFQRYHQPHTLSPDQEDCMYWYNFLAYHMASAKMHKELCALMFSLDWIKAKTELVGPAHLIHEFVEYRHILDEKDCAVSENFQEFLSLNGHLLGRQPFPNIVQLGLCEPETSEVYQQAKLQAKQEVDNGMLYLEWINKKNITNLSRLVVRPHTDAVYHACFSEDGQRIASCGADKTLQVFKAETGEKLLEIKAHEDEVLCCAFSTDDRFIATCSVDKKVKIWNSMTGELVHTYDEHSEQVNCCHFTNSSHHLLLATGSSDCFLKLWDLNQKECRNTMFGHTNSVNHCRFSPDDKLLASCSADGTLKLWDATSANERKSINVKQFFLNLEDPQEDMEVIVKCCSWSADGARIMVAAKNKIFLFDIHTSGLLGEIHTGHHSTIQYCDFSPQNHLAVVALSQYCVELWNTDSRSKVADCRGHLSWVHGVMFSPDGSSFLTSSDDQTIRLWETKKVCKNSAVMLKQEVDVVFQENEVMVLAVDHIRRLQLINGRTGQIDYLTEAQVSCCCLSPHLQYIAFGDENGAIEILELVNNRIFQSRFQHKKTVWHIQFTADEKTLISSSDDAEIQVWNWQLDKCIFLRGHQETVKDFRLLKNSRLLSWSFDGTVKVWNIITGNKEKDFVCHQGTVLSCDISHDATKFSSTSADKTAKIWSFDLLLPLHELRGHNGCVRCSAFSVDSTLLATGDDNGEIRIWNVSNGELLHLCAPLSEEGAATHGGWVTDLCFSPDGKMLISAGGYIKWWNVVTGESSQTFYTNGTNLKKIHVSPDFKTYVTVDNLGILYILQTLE
The format is functional.

The nature of assay [12]: cytotoxicity toward NIH3T3 fibroblasts, dose response, counter-screen, cell-based, ATP luminescence, mouse fibroblasts (AID 2010).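 Note: cells exposed to compound for about 90 hours before reading.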 In kind it is functional. Background: The purpose of a counterscreen is to sort out artefacts and off-target activity.
Assay [13] concerns the target Dual specificity tyrosine-phosphorylation-regulated kinase 1A (Rattus norvegicus, UniProt Q63470). The format is biochemical, Homo sapiens.
For assay [14], the target named is T7, Tyrosyl-DNA phosphodiesterase 2 (Homo sapiens, UniProt O95551).
T7 sequence (O95551 whole entry): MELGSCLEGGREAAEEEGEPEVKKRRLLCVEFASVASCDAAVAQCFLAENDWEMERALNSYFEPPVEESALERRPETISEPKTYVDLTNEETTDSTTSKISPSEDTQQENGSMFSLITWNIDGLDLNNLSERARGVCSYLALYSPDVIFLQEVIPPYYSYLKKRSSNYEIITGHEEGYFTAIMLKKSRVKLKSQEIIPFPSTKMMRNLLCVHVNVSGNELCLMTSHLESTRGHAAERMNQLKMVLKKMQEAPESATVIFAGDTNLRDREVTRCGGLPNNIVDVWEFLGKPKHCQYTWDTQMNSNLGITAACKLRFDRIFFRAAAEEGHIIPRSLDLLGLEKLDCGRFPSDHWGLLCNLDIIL
Nature of the assay: human TDP2 enzyme inhibitors, dose response, biochemical, epi absorbance, IC50 (AID 743297).

The test system of assay [15] is INS1. Nature of the assay: beta cell apoptosis inhibitors, cytokine rescue, dose response, luminescence, retest (AID 449756).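 Note: cell death triggered by IL-1 beta plus TNF-alpha plus IFN-gamma mixture; protective hits raise ATP signal compared with cytokine alone wells.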 In kind it is functional, cell-based. The settings on record: Rattus norvegicus.

The source made the active and inactive calls. A value given as a limit tells only on which side of the number the result lay.

Sequence of Paired box protein Pax-8 (Q06710 whole entry): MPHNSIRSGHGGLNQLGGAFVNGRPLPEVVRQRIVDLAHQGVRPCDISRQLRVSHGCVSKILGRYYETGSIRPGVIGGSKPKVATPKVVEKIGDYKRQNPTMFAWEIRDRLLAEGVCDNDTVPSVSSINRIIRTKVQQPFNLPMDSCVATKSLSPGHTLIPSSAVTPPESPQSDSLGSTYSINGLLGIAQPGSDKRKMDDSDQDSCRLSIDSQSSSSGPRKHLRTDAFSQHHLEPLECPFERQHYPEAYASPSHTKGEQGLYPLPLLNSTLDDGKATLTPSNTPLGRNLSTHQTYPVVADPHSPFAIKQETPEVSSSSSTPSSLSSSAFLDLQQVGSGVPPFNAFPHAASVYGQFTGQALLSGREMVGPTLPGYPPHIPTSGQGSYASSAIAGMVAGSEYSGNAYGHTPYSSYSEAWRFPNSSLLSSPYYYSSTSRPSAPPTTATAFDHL
Sequence of Genome polyprotein (P29990 2492-3391 limits assumed): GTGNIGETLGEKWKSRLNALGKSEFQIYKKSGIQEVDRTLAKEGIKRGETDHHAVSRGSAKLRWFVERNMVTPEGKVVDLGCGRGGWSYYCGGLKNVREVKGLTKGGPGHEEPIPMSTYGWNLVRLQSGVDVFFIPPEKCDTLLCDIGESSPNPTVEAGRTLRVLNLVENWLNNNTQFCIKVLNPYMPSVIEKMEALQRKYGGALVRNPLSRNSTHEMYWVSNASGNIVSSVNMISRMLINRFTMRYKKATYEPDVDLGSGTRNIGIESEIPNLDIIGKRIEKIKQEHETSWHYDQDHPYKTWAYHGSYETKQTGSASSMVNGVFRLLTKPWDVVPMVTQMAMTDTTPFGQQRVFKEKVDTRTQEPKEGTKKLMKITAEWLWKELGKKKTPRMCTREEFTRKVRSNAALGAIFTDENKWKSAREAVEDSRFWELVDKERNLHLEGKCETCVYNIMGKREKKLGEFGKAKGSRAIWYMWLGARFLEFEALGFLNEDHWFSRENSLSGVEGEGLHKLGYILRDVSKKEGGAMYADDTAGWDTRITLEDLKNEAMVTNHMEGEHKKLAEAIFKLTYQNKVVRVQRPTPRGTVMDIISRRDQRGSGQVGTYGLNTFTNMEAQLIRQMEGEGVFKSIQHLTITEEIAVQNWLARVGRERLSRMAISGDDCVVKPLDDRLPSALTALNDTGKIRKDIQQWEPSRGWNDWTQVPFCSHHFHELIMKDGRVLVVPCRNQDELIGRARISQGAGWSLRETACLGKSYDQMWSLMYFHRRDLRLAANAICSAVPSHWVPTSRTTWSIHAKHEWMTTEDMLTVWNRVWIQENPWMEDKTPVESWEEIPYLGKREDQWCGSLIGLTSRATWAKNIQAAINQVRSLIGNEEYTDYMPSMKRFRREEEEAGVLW

A word on the AC50: it is the concentration at which the activity in the assay is half-maximal. In the case of `CC(C)Nc1nnc(SCC(=O)c2c(N)n(Cc3ccccc3)c(=O)n(C)c2=O)s1`, in assay [1], the half-maximal activity concentration (AC50) is 101 µM (active).
What is called EC50 is the midpoint of the concentration-response curve. As to `Cc1ccc(-n2nnnc2SCC(=O)c2c(N)n(C3CC3)c(=O)[nH]c2=O)cc1C`, the EC50 in assay [2] and in assay [3] was > 99 µM (inactive) throughout.
As a reminder, the IC50 is the concentration at which inhibition is half-maximal. Regarding `Nc1nc(Sc2ccc([N+](=O)[O-])c3nonc23)c2[nH]cnc2n1`, the IC50 in [4] is 16 µM (active); in assay [6], 49.7 µM (active). Further, the half-maximal activity concentration (AC50) in [5] is 5.68 µM (active); in assay [7] it was 2.17 µM (active).
For the compound `Cc1ccc(NC2=C(N3CCCCC3)C(=O)c3ccccc3C2=O)cc1`, the values for the concentration at half-maximal activity (AC50) in assay [8], in [13] and in assay [15] were 7.31 µM (active), 11 µM (active) and 0.489 µM (active), respectively. For the same compound, the 50% effective concentration (EC50) in [9] was 0.619 µM (active); in assay [10], 0.629 µM (active); in assay [12], > 30 µM (not active). Also, the IC50 in [11] was 4.88 µM (active); in assay [14], > 128 µM (inactive).
